The values that follow come from BindingDB's records for doi:10.7270/Q2DV1HJQ (The Scripps Research Institute Molecular Screening Center, 2014).

The target of this assay is Disintegrin and metalloproteinase domain-containing protein 17 (Homo sapiens, UniProt P78536). Kind of assay: ADAM17 protease inhibitors, dose response, counter-screen for ADAM10 exosite inhibitor project, biochemical, quenched FRET substrate (AID 743253). Background: A counterscreen serves to expose hits that act by an unwanted route or on another target.
Disintegrin and metalloproteinase domain-containing protein 17, sequence (P78536 whole entry, the tested form may be a part): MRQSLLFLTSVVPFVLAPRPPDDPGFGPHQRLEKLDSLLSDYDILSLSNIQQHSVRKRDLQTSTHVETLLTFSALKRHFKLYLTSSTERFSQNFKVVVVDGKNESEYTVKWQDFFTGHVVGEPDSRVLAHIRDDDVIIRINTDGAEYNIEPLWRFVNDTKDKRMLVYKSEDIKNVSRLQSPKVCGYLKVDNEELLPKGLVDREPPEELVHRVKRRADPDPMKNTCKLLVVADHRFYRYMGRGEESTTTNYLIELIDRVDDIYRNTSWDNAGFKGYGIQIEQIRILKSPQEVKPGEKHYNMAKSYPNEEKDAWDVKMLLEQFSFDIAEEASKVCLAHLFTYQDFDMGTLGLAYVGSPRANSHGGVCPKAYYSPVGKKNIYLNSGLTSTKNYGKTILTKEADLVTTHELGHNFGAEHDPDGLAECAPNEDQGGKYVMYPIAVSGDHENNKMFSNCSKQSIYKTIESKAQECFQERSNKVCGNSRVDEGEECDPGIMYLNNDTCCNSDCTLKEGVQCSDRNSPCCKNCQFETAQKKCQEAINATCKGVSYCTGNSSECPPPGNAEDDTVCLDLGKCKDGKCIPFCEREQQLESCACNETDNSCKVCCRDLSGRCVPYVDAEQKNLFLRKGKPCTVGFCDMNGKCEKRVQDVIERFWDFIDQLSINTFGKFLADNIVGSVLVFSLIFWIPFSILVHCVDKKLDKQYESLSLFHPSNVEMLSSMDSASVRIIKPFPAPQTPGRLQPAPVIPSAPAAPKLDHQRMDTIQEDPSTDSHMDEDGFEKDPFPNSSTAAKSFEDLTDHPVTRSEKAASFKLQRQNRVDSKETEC
In general, IC50 refers to the concentration at which inhibition is half-maximal. A low value points to higher potency. As to `N#CCSc1nc2cc(C(=O)N3CCC(C(N)=O)CC3)ccc2c2nc3ccccc3n12` [1-({6-[(cyanomethyl)thio]benzimidazo[1,2-c]quinazolin-3-yl}carbonyl)piperidine-4-carboxamide], the IC50 is 69.6 µM.

On to `COc1ccc(N2C(=O)NC(=O)C(=Cc3c[nH]c4ccc(Br)cc34)C2=O)c(OC)c1` [(5E)-5-[(5-bromo-1H-indol-3-yl)methylene]-1-(2,4-dimethoxyphenyl)pyrimidine-2,4,6(1H,3H,5H)-trione], for which 12 µM corresponded to half-maximal inhibition (IC50). Compared with the last compound, the IC50 is about 5.8-fold lower.

`O=C1C=CC([N+](=O)[O-])=CC1CN=Nc1ccccn1` (stereo not drawn) [MLS000585015] returned an IC50 of 9.75 µM.
